{"source": "patent US20030124655A1", "about": "“Receptor protein specifically recognizing bacterial dna” (priority 2000, published 2003)", "key": {"spleen cells": {"tested_on": "spleen cells", "experiment": "Spleen cell proliferation, [3H]-timidine uptake", "type": "cell-based, mouse"}, "B cells": {"tested_on": "B cells", "experiment": "MHC class II expression on the surface of B cells", "type": "cell-based, mouse", "settings": "B cells from wild-type mice"}, "[1]": {"tested_on": "dendritic cells derived from bone marrow", "experiment": "IL-12 p40 production in bone marrow-derived dendritic cells (ELISA)", "type": "cell-based, mouse", "settings": "dendritic cells from wild-type mice; 0.1 μM, 2 days"}, "JNK": {"tested_on": "JNK", "experiment": "JNK activity in macrophages, in vitro kinase assay", "type": "cell-based, mouse", "procedure": "(§1) As described in a reference (Immunity 11, 115-122, 1999), the JNK activity and IRAK activity were measured by in vitro kinase assay using GST-c-Jun fusion protein (GST-c-Jun) as a substrate (top figures of FIG. 10 and FIG. 11; GST-c-Jun, Auto).\n(§2) The cell lysates were separated by SDS-polyacrylamide gel electrophoresis to transfer them onto a nitrocellulose membrane and blotted the membrane with anti-JNK antibody (Santa Cruz) or anti-IRAK antibody (Transduction Laboratories) to visualize using an enhanced chemiluminescent system (Dupont) (bottom figures of FIG. 10 and FIG. 11; WB)."}, "IRAK": {"tested_on": "IRAK", "experiment": "IRAK activity in macrophages, in vitro kinase assay", "type": "cell-based, mouse", "procedure": "as §1, §2"}, "[2]": {"settings": "cited from earlier work"}, "NF-κB": {"tested_on": "NF-κB", "experiment": "NF-κB DNA-binding activity in peritoneal macrophages (gel shift)", "settings": "1.0 μM", "description": "2 ml of 4% thioglycolic acid medium (DIFCO) was injected to each peritoneum of wild-type mice and TLR9 knockout mice (TLR9^−/−), peritoneal exudation cells were isolated from peritonea from each mouse after 3 days, the cells were cultured in RPMI1640 medium to which 10% of fetal bovine serum (GIBCO) was added at 37° C. for 2 hours, and remove the unattached cells by washing with ice-chilled Hank's buffered salt solution (HBSS; GIBCO), and the attached cells were used as peritoneal macrophages in the following experiments."}, "[3]": {"settings": "macrophages from TLR9 knockout mice"}, "[4]": {"settings": "macrophages from wild-type mice"}}, "note": "Where two headings read alike, the source gives them in different places.", "data": [{"substance": "TCC-ATG-ACG-TTC-CTG-ATG-CT (DNA TCCATGACGTTCCTGATGCT; listed as DNA, chemistry not given here) [CpG ODN]", "values": [{"measurement": "cell proliferating reaction ([3H]-timidine uptake)", "setting": "spleen cells; spleen cells from TLR9 knockout mice, any concentration", "value": "did not show any cell proliferating reaction"}, {"measurement": "cell proliferating reaction ([3H]-timidine uptake)", "setting": "spleen cells; spleen cells from wild-type mice", "value": "promote cell proliferating reactions depending on the amount"}, {"measurement": "amount of expressing MHC class II on the surface of B cells", "setting": "B cells", "value": "increased"}, {"measurement": "IL-12 p40 production", "setting": "[1]", "value": "produced IL-12"}, {"measurement": "JNK activation", "setting": "JNK; [3]", "value": "does not activate"}, {"measurement": "JNK activation", "setting": "JNK; [4]", "value": "activates"}, {"measurement": "IRAK activation", "setting": "IRAK; [3]", "value": "does not activate"}, {"measurement": "IRAK activation", "setting": "IRAK; [4]", "value": "activates"}, {"measurement": "response to CpG ODN", "setting": "[2]; MyD88 knockout mice", "value": "do not show response"}, {"measurement": "response to CpG ODN", "setting": "[2]; TLR2 knockout mice", "value": "show normal response"}, {"measurement": "response to CpG ODN", "setting": "[2]; TLR4 knockout mice", "value": "show normal response"}, {"measurement": "NF-κB DNA-binding activity", "setting": "NF-κB; [3]", "value": "did not increase NF-κB DNA-binding activity"}, {"measurement": "NF-κB DNA-binding activity", "setting": "NF-κB; [4]", "value": "increased NF-κB DNA-binding activity"}]}]}
